Results reported in publication PMC4643977, “Negative Feedbacks by Isoprenoids on a Mevalonate Kinase Expressed in the Corpora Allata of Mosquitoes” (PLoS ONE, 2015).
One block for each molecule: values may come before it.

Legend:
[1] = target: T1, Aedes aegypti mevalonate kinase (AaMVK) (Aedes aegypti, UniProt Q176C1); test: PK/LDH-coupled spectrophotometric kinase assay, Ki from varied ATP and inhibitor; type: biochemical
T1 construct: gene 5567998; recombinant His-tagged full-length AaMVK (397 aa) expressed in E. coli
T1 sequence (Q176C1 1-397): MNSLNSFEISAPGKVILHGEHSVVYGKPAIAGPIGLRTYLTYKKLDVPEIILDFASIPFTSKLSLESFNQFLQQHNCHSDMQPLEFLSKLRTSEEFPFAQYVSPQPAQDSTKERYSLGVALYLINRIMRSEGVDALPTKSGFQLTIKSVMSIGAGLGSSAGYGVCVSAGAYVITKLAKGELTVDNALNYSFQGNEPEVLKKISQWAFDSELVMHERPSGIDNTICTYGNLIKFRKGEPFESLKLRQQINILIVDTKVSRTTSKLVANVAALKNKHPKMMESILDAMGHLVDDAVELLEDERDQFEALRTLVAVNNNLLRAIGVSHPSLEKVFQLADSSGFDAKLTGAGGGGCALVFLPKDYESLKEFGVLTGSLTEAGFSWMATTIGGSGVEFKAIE

purified protein = substrate: C[C@@](O)(CCO)CC(=O)O; test: purified protein; details: Mg2+
[2] = substrate: Nc1ncnc2c1ncn2[C@@H]1O[C@H](COP(=O)(O)OP(=O)(O)OP(=O)(O)O)[C@@H](O)[C@H]1O; test: Michaelis-Menten kinetics, PK/LDH-coupled assay (Km); type: biochemical, Aedes aegypti; details: Mg2+

Ki [1]: 550 ± 280 nM
Molecule: CC(C)=CCC/C(C)=C/COP(=O)(O)OP(=O)(O)O [GPP, geranyl diphosphate]

Ki [1]: 440 ± 200 nM
Molecule: CC(C)=CCC/C(C)=C/CC/C(C)=C/CO[P@@](=O)(O)OP(=O)(O)O (stereo in doubt) [FPP, farnesyl diphosphate]

Ki [1]: 930 ± 190 nM
Molecule: CC(C)=CCC/C(C)=C/CC/C(C)=C/CC/C(C)=C/COP(=O)(O)OP(=O)(O)O [GGPP, geranyl-geranyl pyrophosphate]

B1: Aedes aegypti mevalonate kinase (AaMVK) (Aedes aegypti) (protein)
chain: T1 sequence (Q176C1 1-397)
notes: recombinant His-tagged full-length AaMVK (397 aa) expressed in E. coli
Km (purified protein): 90 ± 18 µM | Km [2]: 140 ± 28 µM
